Structures can show the parent of a compound that is named as a salt.
What was measured:
[1] = endocyclic and exocyclic double bonds to epoxides; tertiary amine to N-oxide; cited from earlier work
[2] = intranasal, 0.05, 0.1 and 0.2 mg/kg, rats
in vivo [3] = details: male, Wistar, rat, inhaled or intranasal, mean ± SD, N=4; for half-life: T½
in vivo [4] = details: male, Wistar, rat, plasma
Procedure: A serial blood sampling was performed from each animal. The blood samples were collected at 0.00 (pre-dose), 0.08, 0.25, 0.5, 1, 2, 4, 6, 8, 24 hrs. […] Pharmacokinetic parameters were calculated using the non-compartmental analysis (NCA) module of Phoenix-WinNonlin® software version 6.4.

[5] = humans, cited from earlier work
in vivo [6] = assay: in vivo
Procedure: A serial blood sampling was performed from each animal. The blood samples were collected at 0.00 (pre-dose), 0.083, 0.25, 0.5, 1, 2, 4, 6, 8, 24 hrs. […] Pharmacokinetic parameters were calculated using the non-compartmental analysis (NCA) module of Phoenix-WinNonlin® software version 6.4.

[7] = in vivo, planned 0.2 mg/kg (actual 0.14 mg/kg)
[8] = plasma, planned 0.05 mg/kg (actual 0.03 mg/kg)
[9] = plasma, planned 0.1 mg/kg (actual 0.07 mg/kg)
[10] = inhaled or intranasal, 0.02 mg/kg
[11] = New Zealand white, rabbit, plasma, inhaled or intranasal, 0.011 mg/kg
[12] = male, Wistar, rat, inhaled or intranasal, 0.4 mg/kg
[13] = male, Wistar, rat, po, 1.05 mg/kg
[14] = male, beagle, dog, plasma, inhaled or intranasal, 0.26 mg/kg
[15] = male, beagle, dog, plasma, po, 0.51 mg/kg

CN(C)CCC=C1c2ccccc2C=Cc2ccccc21 [cyclobenzaprine, 3-(5H-Dibenzo[a,d]cyclohepten-5-ylidene)-N,N-dimethyl-1-propanamine]
stability towards oxidation [1]: very unstable | Bioavailability versus dose [2]: Dose dependent linear bioavailability | AUC(0-t) (in vivo [3]; [7]): 22.4 ± 10.1 ng·h/mL | half-life (in vivo [3]; in vivo, planned 0.05 mg/kg (actual 0.03 mg/kg)): 1.9 ± 0.3 h | half-life (in vivo [3]; in vivo, planned 0.1 mg/kg (actual 0.07 mg/kg)): 1.6 ± 0.2 h | half-life (in vivo [3]; [7]): 2.2 ± 0.3 h | AUC(0-t) (in vivo [3]; [8]): 4.8 ± 1.4 ng·h/mL | AUC(0-t) (in vivo [3]; [9]): 10.6 ± 3 ng·h/mL | Cmax (in vivo [3]; [8]): 4.6 ± 1.7 ng/mL | Cmax (in vivo [3]; [9]): 16.4 ± 11.6 ng/mL | Cmax (in vivo [3]; plasma, planned 0.2 mg/kg (actual 0.14 mg/kg)): 27.6 ± 26.4 ng/mL | AUC(0-inf) (in vivo [4]; [10]): 2.59 ng·h/mL | AUC(0-t) (in vivo [4]; [10]): 2.32 ng·h/mL | Cmax (in vivo [4]; [10]): 2.83 ng/mL | Tmax (in vivo [4]; [10]): 0.083 h | half-life (in vivo [4]; [10]): 1.07 h | AUC(0-inf) (in vivo [4]; po, 0.885 mg/kg): 3.26 ng·h/mL | AUC(0-t) (in vivo [4]; po, 0.885 mg/kg): 2.54 ng·h/mL | Cmax (in vivo [4]; po, 0.885 mg/kg): 1.2 ng/mL | Tmax (in vivo [4]; po, 0.885 mg/kg): 1 h | half-life (in vivo [4]; po, 0.885 mg/kg): 2.61 h | plasma clearance [5]: 0.7 L/min | effective half-life ([5]; range 8-37 hours, n=18): 18 h | AUC(0-inf) (in vivo [6]; [11]): 0.92 ng·h/mL | AUC(0-t) (in vivo [6]; [11]): 0.52 ng·h/mL | Cmax (in vivo [6]; [11]): 0.56 ng/mL | MRT inf (in vivo [6]; [11]): 2.43 h | MRT last (in vivo [6]; [11]): 0.87 h | Vd/F (in vivo [6]; [11]): 28.6 L/kg | Cl—F—pred (in vivo [6]; intranasal, 0.011 mg/kg): 11.974 L/h/kg | HL—Lambda—z (in vivo [6]; intranasal, 0.011 mg/kg): 1.65 h | DNAUC (AUC normalized at 1 mg/kg dose) (in vivo [6]; intranasal, 0.26 mg/kg): 385.92 | DNAUC (AUC normalized at 1 mg/kg dose) (in vivo [6]; male, Wistar, rat, inhaled or intranasal): 130.85 | AUC(0-inf) (in vivo [6]; [12]): 52.3 ± 12.8 ng·h/mL | AUC(0-t) (in vivo [6]; [12]): 51.2 ± 12.8 ng·h/mL | Cmax (in vivo [6]; [12]): 31.3 ± 10.1 ng/mL | half-life (in vivo [6]; [12]): 2.79 ± 2.35 h | DNAUC (AUC normalized at 1 mg/kg dose) (in vivo [6]; male, Wistar, rat, po): 3.11 | AUC(0-inf) (in vivo [6]; [13]): 3.27 ± 0.42 ng·h/mL | AUC(0-t) (in vivo [6]; [13]): 2.98 ± 0.42 ng·h/mL | Cmax (in vivo [6]; [13]): 1.74 ± 0.95 ng/mL | half-life (in vivo [6]; [13]): 1.43 ± 0.33 h | AUC(0-inf) (in vivo [6]; [14]): 103 ± 26.2 ng·h/mL | AUC(0-t) (in vivo [6]; [14]): 100 ± 25.9 ng·h/mL | Cmax (in vivo [6]; [14]): 62.3 ± 13.8 ng/mL | Tmax (in vivo [6]; [14]): 0.083 h | half-life (in vivo [6]; [14]): 6.09 ± 2.27 h | AUC(0-inf) (in vivo [6]; [15]): 7.58 ± 5.64 ng·h/mL | AUC(0-t) (in vivo [6]; [15]): 7.03 ± 5.65 ng·h/mL | Cmax (in vivo [6]; [15]): 1.61 ± 1.21 ng/mL | Tmax (in vivo [6]; [15]): 1.5 h | half-life (in vivo [6]; [15]): 2.03 ± 0.64 h | Plasma concentrations (in vivo [6]; oral, 0.442 mg/kg, n=4, rabbits): below the limit of quantification | DNAUC (AUC normalized at 1 mg/kg dose) (in vivo [6]; oral, 0.51 mg/kg): 13.52 | Tmax (in vivo [6]; rat, inhaled or intranasal, 0.4 mg/kg): 0.083 h | Tmax (in vivo [6]; rat, po, 1.05 mg/kg): 0.5 (0.25-1.0) Hour

CN(C)CCC=C1c2ccccc2C=Cc2ccccc21 [Cyclobenzaprine hydrochloride, cyclobenzaprine hydrochloride]
dose excreted in the urine as unchanged drug ([5]; study with 14C-labelled drug): about 1%

— patent publication US20220339124A1 (CADILA HEALTHCARE LIMITED, priority 2019, published 2022)
